Laboratory results as given in patent publication US5738998A, “Compositions and methods for diagnosing schizophrenia” (priority 1995, dated 1998).

Test system: Chinese hamster ovary cells without the D4 receptor
Experiment: [35S]GTPγS binding to G proteins in CHO cells without the D4 receptor
Assay type: cell-based
Settings: CHO cells without the D4 receptor (FIG. 5B)
Excerpt: FIGS. 5A and 5B illustrate graphic representations of the effect of cycloleucine on spontaneous G protein binding of [^35 S]GTPγS.

NC1(C(=O)O)CCCC1 [cycloleucine]
spontaneous [35S]GTPγS binding: inability
